Earlier results as cited in US20050112193A1, “Immediate-release formulations of acid-labile pharmaceutical compositions” (priority 2003, published 2005).
Where two headings read alike, the source gives them in different places.

Columns and labels:
[1] = for time to undergo 50% degradation: acidic stomach / gastric environment, pH of 1.2 given for pantoprazole sodium and rabeprazole sodium
[2] = in water

| pKa | time to undergo 50% degradation [1] | time for 50% of drug to be degraded (t ½) ([1]; pH 1.2) [h] | time for 50% of drug to be degraded (t ½) ([1]; pH 5.1) [h] | time for 50% of drug to be degraded (t ½) ([1]; pH 6) [h] | time for 50% of drug to be degraded (t ½) ([1]; pH 7) [h] | Solubility ([2]; listed as Lansoprazole base) | Solubility ([2]; listed as Omeprazole base) | time for 50% of drug to be degraded (t ½) ([1]; pH 5) [h] | Solubility [2] | SMILES |
| --- | --- | --- | --- | --- | --- | --- | --- | --- | --- | --- |
| 4.1 | 2 min | 0.0333 | 1.5 | 6.4 | 35 | very slightly soluble |  |  |  | Cc1c(OCC(F)(F)F)ccnc1C[S+]([O-])c1nc2ccccc2[nH]1 (stereo not drawn) [Lansoprazole] |
| 3.9 | less than 3 minutes | 0.0467 | 1.4 | 7.3 | 39 |  | slightly soluble |  |  | COc1ccc2[nH]c([S+]([O-])Cc3ncc(C)c(OC)c3C)nc2c1 (stereo not drawn) [Omeprazole, 5-methoxy-2-[[(4-methoxy-3,5-dimethyl-2-pyridinyl)methyl]sulfinyl]-1H-benzimidazole] |
| 3 | less than 5 minutes | 0.0767 | 4.7 | 21 | 73 |  |  | 2.8 | very soluble | COc1ccnc(C[S+]([O-])c2nc3ccc(OC(F)F)cc3[nH]2)c1OC (stereo not drawn) [Pantoprazole sodium] |
| 4.9 | less than 1.5 minutes | 0.0217 | 0.12 |  |  |  |  |  | Very soluble | COCCCOc1ccnc(C[S+]([O-])c2nc3ccccc3[nH]2)c1C (stereo not drawn) [Rabeprazole sodium] |
